Each structure is given as a SMILES string.

Series [1] in a line: Magnetic resonance relaxivity (R1, R2) of paramagnetic polymerized liposomes. It counts as physicochemical. An excerpt: We have constructed paramagnetic polymerized liposomes using the above techniques with 2.5 to 100 mol % of the gadolinium chelated diamide shown in FIG. 4, with the polyethylene glycol linker m=1 and m=2, and sizes ranging from 30 nm to 200 nm in diameter. We have determined the maximum T1 relaxivity, showing the best contrast, is obtained with 15% gadolinium chelated diamide and 85% DAPC with m=2 and having 200 nm particle size. High relaxivity is also observed with 30% gadolinium chelated diamide and 70% PDA with m=1 and having a variable particle size of about 10 to about 200 nm.
Similar measurements were made using PDA liposomes as the matrix lipid and the gadolinium chelated diamide (m=1).

For series [2] the following is noted: rat, in vivo; cited from earlier work.

On to `O=C([O-])CN(CCN(CC(=O)[O-])CC(=O)O)CCN(CC(=O)[O-])CC(=O)O.[Gd+3]` [Gd (DTPA), gadolinium diethylenetriaminepentaacetic acid], for which the “molar relaxivity per Gd^+3 ion” value in series [1] is 4.2 mM⁻¹ s⁻¹. In series [1] (DAPC matrix lipid, gadolinium-diamide %, linker m and size as in label), the R1 amounted to 4.4 s⁻¹ mM⁻¹. In series [2], the “elimination from the blood pool” value is recorded as “within a few minutes”.

Source of the values: patent publication US6569451B1, “Targeted polymerized liposome diagnostic and treatment agents” (Targesome, Inc., priority 1994, dated 2003).
